Experimental findings from patent publication US5750509A, “Amide derivatives of antibiotic A 40926” (Gruppo Lepetit S.p.A., priority 1991, dated 1998) are described below.

For experiment [1], the system named is Enterococcus faecium L 1666. As to the kind of experiment: MIC, glycopeptide-resistant Enterococcus faecium L 1666. It is filed as cell-based.
Experiment [2] deals with Enterococcus faecium L 1650. Nature of the experiment: MIC, glycopeptide-resistant Enterococcus faecium L 1650. Format: cell-based.
Experiment [3] relates to Enterococcus faecium L 1680. Nature of the experiment: MIC, glycopeptide-resistant Enterococcus faecium L 1680. Format: cell-based.
For experiment [4], the system named is Enterococcus faecium L 1683. As to the kind of experiment: MIC, glycopeptide-resistant Enterococcus faecium L 1683. It is filed as cell-based.
Experiment [5] deals with Enterococcus faecium L 1686. As to the kind of experiment: MIC, glycopeptide-resistant Enterococcus faecium L 1686. Format: cell-based.
In experiment [6] the test system is Enterococcus faecium L 564. Nature of the experiment: MIC, glycopeptide-resistant Enterococcus faecium L 564. Format: cell-based.
Experiment [7] has as its system Enterococcus faecium L 565. Nature of the experiment: MIC, glycopeptide-resistant Enterococcus faecium L 565. Format: cell-based.
For experiment [8], the system named is Entero. faecalis L 562. Nature of the experiment: MIC, microbroth dilution, Entero. faecalis L 562. Format: cell-based, Enterococcus faecalis.
The test system of experiment [9] is Enterococcus faecium L 1652. Nature of the experiment: MIC, glycopeptide-resistant Enterococcus faecium L 1652. It is filed as cell-based.
For experiment [10], the system named is Enterococcus faecium L 1681. Nature of the experiment: MIC, glycopeptide-resistant Enterococcus faecium L 1681. It is filed as cell-based.
The test system of experiment [11] is highly glycopeptide-resistant enterococci. As to the kind of experiment: in vitro activity against highly glycopeptide-resistant enterococci (summary). Format: cell-based.
The test system of experiment [12] is Enterococcus faecium L 569. As to the kind of experiment: MIC, glycopeptide-resistant Enterococcus faecium L 569. It is filed as cell-based.
The test system of experiment [13] is Entero. faecalis L 149. Nature of the experiment: MIC, microbroth dilution, Entero. faecalis L 149. Format: cell-based. Particulars: Table II.
Experiment [14] concerns Neisseria gonorrh. L 997. Nature of the experiment: MIC, microbroth dilution, Neisseria gonorrh. L 997. It is filed as cell-based, Neisseria gonorrhoeae. The conditions noted are these: Table II.
Experiment [15] concerns Staph. aureus L 165. Nature of the experiment: MIC, microbroth dilution, Staph. aureus L 165. Format: cell-based. The conditions noted are these: Table II. (In general: In broth dilution the organism is exposed to a series of concentrations in liquid medium.)
Experiment [16] concerns Enterococcus faecalis L 563. As to the kind of experiment: MIC, glycopeptide-resistant Enterococcus faecalis L 563. The conditions noted are these: Table III. Format: cell-based.
For experiment [17], the system named is Strep. pyogenes L 49. As to the kind of experiment: MIC, microbroth dilution, Strep. pyogenes L 49. Format: cell-based. The conditions noted are these: Table II.
Experiment [18] deals with Strep. pyogenes C 203. As to the kind of experiment: experimental streptococcal septicemia in mice. Particulars: Strep. pyogenes C 203 septicemia, adm. route sc. Format: in vivo. The text has this: The experiments have been carried out according to the procedure described by V. Arioli et al., Journal of Antibiotics 29, 511 (1976).
Experiment [19] deals with Staph. haemolyticus L 602. Nature of the experiment: MIC, microbroth dilution, Staph. haemolyticus L 602. The conditions noted are these: Table II. It is filed as cell-based.
For experiment [20], the system named is Staph. epidermidis L 147. Nature of the experiment: MIC, microbroth dilution, Staph. epidermidis L 147. Format: cell-based. The conditions noted are these: Table II.
For experiment [21], the system named is Proteus vulgaris L 79. Nature of the experiment: MIC, microbroth dilution, Proteus vulgaris L 79. It is filed as cell-based. The conditions noted are these: Table II.
Experiment [22] relates to Enterococcus faecalis L 560. Nature of the experiment: MIC, glycopeptide-resistant Enterococcus faecalis L 560. It is filed as cell-based. Particulars: Table III.
Experiment [23] has as its system Strep. pneumoniae L 44. As to the kind of experiment: MIC, microbroth dilution, Strep. pneumoniae L 44. It is filed as cell-based. The conditions noted are these: Table II.
The subject of experiment [24] is Pseudomonas aerug. L 4. As to the kind of experiment: MIC, microbroth dilution, Pseudomonas aerug. L 4. Format: cell-based. Particulars: Table II.
Experiment [25] concerns Staph. aureus L 561. As to the kind of experiment: MIC, microbroth dilution, Staph. aureus L 561. Particulars: Table II. It is filed as cell-based.
In experiment [26] the test system is Staph. epidermidis L 533. Nature of the experiment: MIC, microbroth dilution, Staph. epidermidis L 533. It is filed as cell-based. The conditions noted are these: Table II.
Experiment [27] deals with Esch. coli L 47. Nature of the experiment: MIC, microbroth dilution, Esch. coli L 47. Format: cell-based. The conditions noted are these: Table II.

Usually MIC stands for the smallest concentration in the dilution series that meets the test's criterion for growth inhibition. Consider `CN[C@H](CC(C)C)C(=O)N[C@H]1C(=O)N[C@@H](CC(N)=O)C(=O)N[C@H]2C(=O)N[C@H]3C(=O)N[C@H](C(=O)N[C@H](C(=O)O)c4cc(O)cc(O)c4-c4cc3ccc4O)[C@H](O)c3ccc(c(Cl)c3)Oc3cc2cc(c3O[C@@H]2O[C@H](CO)[C@@H](O)[C@H](O)[C@H]2O[C@H]2C[C@](C)(N)[C@H](O)[C@H](C)O2)Oc2ccc(cc2Cl)[C@H]1O` [VANCOMYCIN, vancomycin], for which the MIC in experiment [1] (Enterococcus faecium, L1666) was above 128 µg/mL; in [2] (Enterococcus faecium, L1650), above 128 µg/mL; in [3] (Enterococcus faecium, L1680) it was above 128 µg/mL; in experiment [4] (Enterococcus faecium, L1683), above 128 µg/mL; in [5] (Enterococcus faecium, L1686) it was above 128 µg/mL; in experiment [6] (Enterococcus faecium, L564) it was above 128 µg/mL. Also, the MIC in experiment [7] (Enterococcus faecium, L565) is above 128 µg/mL; in [8] (Enterococcus faecalis, L562), above 128 µg/mL; in experiment [9] (Enterococcus faecium, L1652), above 128 µg/mL; in [10] (Enterococcus faecium, L1681), above 128 µg/mL; in [12] (Enterococcus faecium, L569) it was above 128 µg/mL. The “in vitro activity / resistance in words” value in [11] is on record as “highly resistant”.
A word on the ED50: it is the dose that gives a 50% effect, or the effect in half of the subjects. Low values mean an effect at a small dose, high ones a need for a large dose. teicoplanin: the minimal inhibitory concentration (MIC) in [1] (Enterococcus faecium L 1666, Table III) was above 128 µg/mL; in [13], 0.13 µg/mL; in experiment [2] (Enterococcus faecium L 1650, Table III) it was above 128 µg/mL; in experiment [3] (Enterococcus faecium L 1680, Table III) it was above 128 µg/mL; in experiment [4] (Enterococcus faecium L 1683, Table III), above 128 µg/mL; in [14], 32 µg/mL. The MIC in experiment [15] was 0.25 µg/mL; in [16] it was above 128 µg/mL; in [5] (Enterococcus faecium L 1686, Table III) it was above 128 µg/mL; in experiment [17], 0.13 µg/mL; in experiment [6] (Enterococcus faecium L 564, Table III), above 128 µg/mL; in experiment [7] (Enterococcus faecium L 565, Table III), above 128 µg/mL. Further, the MIC in [19] was 32 µg/mL; in experiment [20], 4 µg/mL; in experiment [21], above 128 µg/mL; in experiment [22] it was above 128 µg/mL; in experiment [8] (Entero. faecalis L 562, Table II) it was above 128 µg/mL; in experiment [8] (Enterococcus faecalis L 562, Table III), above 128 µg/mL. In addition, the MIC in experiment [23] is 0.06 µg/mL; in experiment [24] it was above 128 µg/mL; in experiment [9] (Enterococcus faecium L 1652, Table III), above 128 µg/mL; in [25], 8 µg/mL; in experiment [26], 8 µg/mL; in experiment [10] (Enterococcus faecium L 1681, Table III) it was above 128 µg/mL. The minimum inhibitory concentration (MIC) was above 128 µg/mL in experiment [27] and above 128 µg/mL in [12] (Enterococcus faecium L 569, Table III). This compound also returned an ED50 in experiment [18] of 0.16 mg/kg. In addition, the “in vitro activity / resistance in words” value in experiment [11] is recorded as “highly resistant”.
